“And” between values parts separate entries of the source, which are not always exact repeats. Equal values may be shown once. Read-outs that look alike come from different tables or passages of the source. One block for each compound: values may come before it.
How the values were obtained:
[1] = system: A53T mutant α-synuclein overexpressing BE(2)-M17 cells (M3.2); experiment: Neuroprotection in A53T mutant α-synuclein overexpressing BE(2)-M17 cells (M3.2); format: cell-based, human; details: for Neuroprotection (cell viability): A53T mutant α-synuclein cells (M3.2), Alamar Blue assay
Description: (§1) BE(2)-M17 human neuroblastoma cells engineered to stably express either wild type or A53T mutant α-synuclein, PC12 rat pheochromocytoma, or SH-SY5Y human neuroblastoma cells were cultured in 96-well cell culture dishes in a humidified incubator at 37° C., 5% CO2. The growth medium was supplemented with 0.1% dimethyl sulfoxide (vehicle control) or compounds dissolved in dimethyl sulfoxide. Following 2 hours of exposure to compounds, the growth medium was further supplemented with 6-hydroxydopamine (or 0.1% ascorbic acid vehicle control) and incubated for an additional 24-48 hours.
(§2) See FIGS. 1A and 1B for neuroprotection observed in PC12 cells treated with dual acting FKBP12 and FKBP52 inhibitory exemplary compounds CAP01687 (FIG. 1A) and CAP01693 (FIG. 1B) measured using WST-8 assay. Specifically, FIGS. 1A and 1B, show relative percent protection from 6-OHDA, the vehicle control being set to 0% relative protection. […] Neuroprotection was also observed in A53T mutant α-synuclein overexpressing BE(2)-M17 cells (M3.2) treated with CAP01687 (FIG. 3B). The bars in FIGS. 3A and 3B depict relative percent fluorescence, which is proportional to cell viability, with the vehicle control being 100%.]
as §1, with “pheochromocytoma cells,” for “pheochromocytoma,”, “C. and” for “C.,”, “(OHDA) or” for “(or”, “hours. […]” for “hours.”

[2] = system: WT21 cells; experiment: Cytotoxicity to WT21 cells (MTS tetrazolium dye reduction); format: cell-based, human; details: concentrations under 50 μM
[3] = system: PC12 cells; experiment: Neurite outgrowth; format: cell-based, rat; details: light microscopy, bar graph
Description: PC12 rat pheochromocytoma or SH-SY5Y human neuroblastoma cells were grown on glass coverslips in a 24-well cell culture dish in a humidified incubator at 37° C., 5% CO2. After 24 hours, the cells were washed with phosphate buffered saline and the serum concentration of the growth medium was reduced to 0.2%. After 16 hours in the reduced serum medium, 0.1% dimethyl sulfoxide (vehicle control) or compounds dissolved in dimethyl sulfoxide were added to the growth medium. Following 2 hours of exposure to compounds, the growth medium was supplemented with 6-hydroxydopamine (or 0.1% ascorbic acid vehicle control), nerve growth factor (or phosphate-buffered saline vehicle control), in addition to 0.1% dimethyl sulfoxide (vehicle control) or compounds dissolved in dimethyl sulfoxide. […] Phase contrast images were captured at 20× magnification and the percentage of cells with neurites longer than 20 μm were scored for approximately 200 cells in each condition using ImageJ software.
PC12 rat pheochromocytoma or SH-SY5Y human neuroblastoma cells were grown on glass coverslips in a 24-well cell culture dish in a humidified incubator at 37° C. and 5% CO2. […] Phase contrast images were captured at 20× magnification and the percentage of cells with neurites longer than 20 μm were scored for approximately 200 cells in each condition using ImageJ software.

[4] = system: wild type α-synuclein overexpressing BE(2)-M17 cells (WT21); experiment: Neuroprotection in wild type α-synuclein overexpressing BE(2)-M17 cells (WT21); format: cell-based, human; details: Alamar Blue assay
Description: as §1
as §2, with “Cell viability was measured by reduction of WST-8 or AlamarBlue® and the relative protection from 6-hydroxydopamine was measured by calculating the percentage of viable cells normalized to 6-hydroxydopamine treated cells in the absence of compound. See” for “See”
BE(2)-M17 human neuroblastoma cells engineered to stably express either wild type or A53T mutant α-synuclein, PC12 rat pheochromocytoma cells, or SH-SY5Y human neuroblastoma cells were cultured in 96-well cell culture dishes in a humidified incubator at 37° C. and 5% CO2. The growth medium was supplemented with 0.1% dimethyl sulfoxide (vehicle control) or compounds dissolved in dimethyl sulfoxide. […]
Cell viability was measured by reduction of WST-8 or alamarBlue® and the relative protection from 6-hydroxydopamine was measured by calculating the percentage of viable cells normalized to 6-hydroxydopamine treated cells in the absence of compound.

[5] = Distribution of inhibitors in plasma and brain after intravenous dosing of mice; format: in vivo; details: 1 mg/kg IV; for Plasma Concentrations, mean: n = 5; for concentration at 1 h / concentration at 0.15 h / concentration at 0.5 h: male, CD1, mouse, iv, 1 mg/kg
Description: Distribution of inhibitors in plasma and brain tissue was examined after intravenous dosing of mice with inhibitors. The experimental conditions were as follows: Mice: male CD1 about 8 weeks old; body weight: about 25 g; No. of groups: one; No. of animals per group: 5; vehicle for IV dosing: DMSO; dosage: 1 mg/kg.
Plasma samples were separated by centrifugation in presence of K2-EDTA as anticoagulant. Brain tissue were homogenized in phosphate buffer saline and processed for bioanalysis as per standard practice. Samples were analyzed by a discovery grade bio-analytical method using LC-MS/MS method.

[6] = Microsomal stability (Clint assay), human liver microsome; format: in vitro ADME; details: both sexes, liver microsomes, pH 7.4, 1 μM compound, 0.5 mg/mL protein, 1 mM NADPH, 37° C.; for microsomal CLint at 1 μM: read-out: Clearance CL int (human microsomes); for half-life at 1 μM: read-out: Human microsomes T1/2
Description: (§3) Microsomal stability measurements were carried out by Clint assay. Test compounds were incubated with liver microsome, and metabolic stability was determined over 45 minutes. The experimental conditions were as follows. […]

[7] = Microsomal stability (Clint assay), rat liver microsome; format: in vitro ADME; details: male, Sprague-Dawley, liver microsomes, pH 7.4, 1 μM compound, 0.5 mg/mL protein, 1 mM NADPH, 37° C.; for microsomal CLint at 1 μM: read-out: Clearance CL int (rat microsomes); for half-life at 1 μM: read-out: Rat microsomes T1/2
Description: as §3

[8] = system: PC12 rat pheochromocytoma cells; experiment: Neuroprotection from 6-hydroxydopamine in PC12 cells (WST-8); format: cell-based; details: WST-8 assay, FIG. 1
Description: as §1
Cell viability was measured by reduction of WST-8 or AlamarBlue® and the relative protection from 6-hydroxydopamine was measured by calculating the percentage of viable cells normalized to 6-hydroxydopamine treated cells in the absence of compound. See FIGS. 1A and 1B for neuroprotection observed in PC12 cells treated with dual acting FKBP12 and FKBP52 inhibitory exemplary compounds CAP01687 (FIG. 1A) and CAP01693 (FIG. 1B) measured using WST-8 assay. Specifically, FIGS. 1A and 1B, show relative percent protection from 6-OHDA, the vehicle control being set to 0% relative protection. […] The bars in FIGS. 3A and 3B depict relative percent fluorescence, which is proportional to cell viability, with the vehicle control being 100%.] […]

[9] = brain, 1 h, n = 5, read-out: Brain concentrations, mean
[10] = plasma, 0.15 h, n = 5, read-out: Plasma Concentrations, mean
[11] = plasma, 0.5 h, n = 5, read-out: Plasma Concentrations, mean
[12] = plasma, 0.5 h, read-out: Plasma Concentrations, individual animals
[13] = plasma, 1 h, n = 5, read-out: Plasma Concentrations, mean
[14] = plasma, 1 h, read-out: Plasma Concentrations, individual animals

Compound: COc1ccc(/N=N/c2nc3ccccc3n2C)c2ccccc12 [CAP01324]
Neuroprotection (relative change in absorbance, MTS) ([1]; A53T mutant cells, 100 nM, MTS tetrazolium dye): neuroprotection
Cytotoxicity (relative change in absorbance, MTS) [2]: not cytotoxic

Compound: CCn1c(/C=C/c2ccc(Cl)cc2)nc2ccccc21 [CAP01510]
Neurite outgrowth (percentage of cells with neurites longer than 20 μm) [3]: dose dependent promotion of neurite outgrowth

Plasma Concentrations, mean ([5]; 0.15 h): 194.59 ng/mL
Plasma Concentrations, mean ([5]; 0.5 h): 65.36 ng/mL
Plasma Concentrations, mean ([5]; 1 h): 33.80 ng/mL
concentration at 1 h [5, 9]: 70.4 ng/g
concentration at 1 h ([5]; brain, 1 h, read-out: Brain concentrations, individual animals): 73.8 ng/g
concentration at 0.15 h [5, 10]: 195 ± 69.9 ng/mL
concentration at 0.5 h [5, 11]: 65.4 ± 16.2 ng/mL
concentration at 0.5 h [5, 12]: 71.9 ng/mL
concentration at 1 h [5, 13]: 33.8 ± 11 ng/mL
concentration at 1 h [5, 14]: 33.7 ng/mL
microsomal CLint at 1 μM [6]: 52.4 µL/min/mg
half-life at 1 μM [6]: 26.4 min
microsomal CLint at 1 μM [7]: 202 µL/min/mg
half-life at 1 μM [7]: 6.85 min
Compound: Cc1ccc(Cn2c(/C=C/c3ccc(F)cc3)nc3ccccc32)cc1 [CAP01551, 2-[2-(4-fluorophenyl)vinyl]-1-(4-methylbenzyl)-1H-benzimidazole]
Neuroprotection (cell viability) [4]: neuroprotection
Plasma Concentrations, individual animals ([5]; 0.15 h): 217.36 ng/mL and 295.33 ng/mL and 122.46 ng/mL and 203.22 ng/mL and 134.60 ng/mL
Plasma Concentrations, individual animals ([5]; 0.5 h): 88.98 ng/mL and 46.31 ng/mL and 62.88 ng/mL and 56.74 ng/mL
Brain concentrations, individual animals ([5]; 1 h): 81.88 ng/G and 57.91 ng/G and 63.84 ng/G and 74.50 ng/G
Plasma Concentrations, individual animals ([5]; 1 h): 52.86 ng/mL (2×) and 27.45 ng/mL (2×) and 27.24 ng/mL (2×) and 27.74 ng/mL (2×) and 33.70 ng/mL

Compound: CC(C)CCn1c(/C=C/c2ccc(F)cc2)nc2ccccc21 [CAP01559]
Neuroprotection (cell viability) [4]: neuroprotection
Neuroprotection (cell viability) [1]: neuroprotection

Compound: O=C(N[C@@H](Cc1ccc(Cl)cc1)C(=O)NCCCc1ccccc1)c1ccc2cc(F)ccc2c1 [CAP01687]
Neuroprotection (relative percent protection from 6-OHDA) [8]: neuroprotection
Neuroprotection (cell viability) [4]: neuroprotection
Neuroprotection (cell viability) [1]: neuroprotection
Neurite outgrowth (percentage of cells with neurites longer than 20 μm) [3]: promotion of neurite outgrowth

Compound: O=C(N[C@@H](Cc1ccc(Cl)cc1)C(=O)NCCCc1cccnc1)c1ccc2cc(F)ccc2c1 [CAP01693, (2S)-3-(4-chlorophenyl)-2-[(6-fluoronaphthalen-2-yl)-formamido]-N-[3-(pyridine-3-yl)propyl]propanamide]
Neuroprotection (relative percent protection from 6-OHDA) [8]: neuroprotection

Plasma Concentrations, mean ([5]; 0.15 h): 239.7 ng/mL
Plasma Concentrations, mean ([5]; 0.5 h): 100.5 ng/mL
Plasma Concentrations, mean ([5]; 1 h): 49.8 ng/mL
concentration at 1 h [5, 9]: 19.1 ng/g
concentration at 0.15 h [5, 10]: 240 ± 14.2 ng/mL
concentration at 0.15 h ([5]; plasma, 0.15 h, read-out: Plasma Concentrations, individual animals): 246 ng/mL
concentration at 0.5 h [5, 11]: 100 ± 5.1 ng/mL
concentration at 0.5 h [5, 12]: 103 ng/mL
concentration at 1 h [5, 13]: 49.8 ± 6.8 ng/mL
concentration at 1 h [5, 14]: 50.3 ng/mL
microsomal CLint at 1 μM [6]: 167 µL/min/mg
half-life at 1 μM [6]: 8.29 min
microsomal CLint at 1 μM [7]: 130 µL/min/mg
half-life at 1 μM [7]: 10.7 min
Compound: O=C(N[C@H](C(=O)NCCCc1ccccc1)c1ccccc1)c1ccc2cc(F)ccc2c1 [CAP01723, (2S)-2-[(6-fluoronaphthalen-2-yl)formamido]-2-phenyl-N-(3-phenylpropyl)acetamide]
Plasma Concentrations, individual animals ([5]; 0.15 h): 258.2 ng/mL and 225.3 ng/mL and 225.4 ng/mL and 244.2 ng/mL
Plasma Concentrations, individual animals ([5]; 0.5 h): 106.1 ng/mL and 97.6 ng/mL and 102.6 ng/mL and 93.2 ng/mL
Brain concentrations, individual animals ([5]; 1 h): 17.2 ng/G and 14.6 ng/G and 31.9 ng/G and 9.5 ng/G and 22.3 ng/G
Plasma Concentrations, individual animals ([5]; 1 h): 41.1 ng/mL (2×) and 58.7 ng/mL (2×) and 53.5 ng/mL (2×) and 45.4 ng/mL (2×) and 50.3 ng/mL
